Laboratory results: US7902138B2, “Liquid detergent composition” (The Sun Products Corporation, priority 2003, dated 2011)

System: Protease enzyme
Assay: Residual protease activity in liquid detergent formulation after storage at 37° C. (tetrapeptide substrate assay)
Assay type: biochemical
Details: activity determined at 40° C., TRIS pH 9, relative to t=0; for Residual activity after 2 weeks, 0.05% BHT / Residual activity after 4 weeks, 0.05% BHT: 'base' liquid detergent formulation + 0.06% by weight perfume component + 0.05% by weight BHT; for Residual activity after 2 weeks, 0.05% BHT / Residual activity after 2 weeks, No BHT: 2 weeks storage at 37° C.; for Residual activity after 4 weeks, 0.05% BHT / Residual activity after 4 weeks, No BHT: 4 weeks storage at 37° C.; for Residual activity after 2 weeks, No BHT / Residual activity after 4 weeks, No BHT: 'base' liquid detergent formulation + 0.06% by weight perfume component
Method: To various samples of this ‘base’ liquid formulation 0.06% by weight based on said formulation of several types of perfume component—as indicated in the tables below—were added such that, as a result, each sample contains a different type of perfume component. To other samples of this ‘base’ formulation not only 0.06% by weight of said perfume components but also 0.05% by weight BHT (2,6-di-tert-butyl hydroxy toluene) were added.
The residual activity of the protease enzyme in all thus-formed formulations after 2 weeks and 4 weeks storage at 37° C., was determined at 40° C. in a TRIS pH 9 buffer and using tetrapeptide as substrate. For this determination, the following protocol was used:
Samples of 70 mg of the tested liquid formulation were diluted in 10.00 ml MilliQ water. 10 μl of this solution was added to an assay of 205 μl containing 74.4 mM TRIS pH9 and 0.494 mM tetrapeptide (succinyl-Ala-Ala-Pro-Phe-p-Nitroanilide). The absorbance of the tested samples at a wavelength of 450 nm was measured for 15 minutes at 40° C., using a spectrophotometer. The absolute changes in absorbance as compared to the absorbance measured on a freshly prepared calibration sample were correlated to the measured activity of such freshly prepared sample. The measured protease enzyme activity is expressed as GU/ml.
The residual enzyme activity (expressed as %) is the enzyme activity after storage of the liquid formulation concerned divided by the enzyme activity measured at t=0.
Tables 1 and 2 show the effect of the addition of 0.05% by weight of BHT on the residual enzyme activity in ‘base’ liquid detergent formulations additionally containing 0.06% by weight of the indicated perfume components, after 2 weeks storage at 37° C. respectively 4 weeks storage at 37° C.

Compound | Residual activity after 2 weeks, 0.05% BHT | Residual activity after 4 weeks, 0.05% BHT | Residual activity after 2 weeks, No BHT | Residual activity after 4 weeks, No BHT
CC(C)=C1CC[C@@H](C)CC1=O [Pulegone] | 82% | 76% | 45% | 16%
CC1=CCC(=C(C)C)CC1 [Terpinolene] | 85% | 79% | 51% | 17%
Terpinegene G | 72% | 62% | 48% | 23%
CCC(=O)/C=C/C1C(C)=CCCC1(C)C (stereo not drawn) [Alpha methylionone] | 84% | 78% | 39% | 14%

Other lines, results leading:

Residual activity after 2 weeks, 0.05% BHT | Residual activity after 4 weeks, 0.05% BHT | Residual activity after 2 weeks, No BHT | Residual activity after 4 weeks, No BHT | Compound
70% | 54% | 14% | 4% | CCCCCCCCCCC=CC=O [Tridecyclenaldehyde]
82% | 72% | 16% | 5% | CC1=CC(C)C(C=O)CC1 (centres unmarked) [Zestover]
68% | 46% | 13% | 3% | Octenal
80% | 68% | 39% | 9% | CC(C=O)Cc1ccc(C(C)(C)C)cc1 (centres unmarked) [Lilial]
